Laboratory results as given in paper PMC10985226, “A tangible method to assess native ferroptosis suppressor activity” (Cell Reports Methods, 2024).

Molecular target: T1, Glutathione peroxidase 4 (Strep-hGPX4) (Homo sapiens, UniProt P36969)
T1 construct: gene GPX4
T1 sequence (P36969 28-197): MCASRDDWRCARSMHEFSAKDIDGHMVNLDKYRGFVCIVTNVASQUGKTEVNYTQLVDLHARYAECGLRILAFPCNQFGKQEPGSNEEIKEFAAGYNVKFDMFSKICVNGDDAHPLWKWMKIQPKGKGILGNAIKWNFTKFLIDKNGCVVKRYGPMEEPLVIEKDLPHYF
Experiment: substrate turnover by isolated hGPX4, NADPH-coupled assay
Type: biochemical

Compound	substrate turnover by isolated hGPX4, NADPH-coupled assay
CC(C)(OO)c1ccccc1 [cumeneOOH, cumene hydroperoxide]	All hydroperoxides except for H2O2 afforded the GPX4-dependent NADPH consumption in the assay system
CC(C)(C)OO [tBuOOH, tert-butyl hydroperoxide]	All hydroperoxides except for H2O2 afforded the GPX4-dependent NADPH consumption in the assay system
